Reference: patent US9821000B2, “Compounds, compositions and corresponding uses for preventing and/or treating of dyslipidemia” (CENTRE NATIONAL DE LA RECHERCHE SCIENTIFIQUE (CNRS), priority 2013, dated 2017)
“Also recorded” adds a separate entry of the source.

Key:
[1] = test system: hem1Δ yeasts; assay: Phospholipid fatty acid content by mass spectrometry in lipo-intoxicated hem1Δ yeasts; assay type: cell-based, Saccharomyces cerevisiae; conditions: hem1Δ, SFA accumulation, 100 μM compound; for production of di-unsaturated phospholipids (level of PC species 36:2): 7 h
Procedure: The hem1Δ yeasts were cultivated in standard conditions (control) or in conditions of SFA accumulation without (Ø) or with the addition of 100 μM of oleic acid, LPA or OAG as indicated.
FIG. 6A—After 7 h of incubation, the phospholipids (PL) were extracted and the different species of phosphatidylcholine (PC), which constitute the predominantly present PL were analyzed by mass spectrometry in positive mode, according to Pineau et al. (2008).
FIG. 6B—All the species of PL detectable in these conditions of mass spectrometry were analyzed to globally quantify the content in SFA forms.
The hem1Δ strain is cultivated in a YPG^A, YPG^+ or YPG^+ liquid medium+200 μM of compound to be tested in aerobic conditions, under stirring and at 28° C. for 7 h, starting from an initial cell concentration of 2·10^6 cells/mL. At the end of the culture, 10^8 cells are collected in order to carry out the extraction of the total lipids. After the cells have been put in suspension in 1 mL of distilled water at 4° C., 500 μL of glass beads (Ø 0.6 mm) are added and the whole mixture then undergoes three sequences of 20 seconds at 5000 rpm in a stirrer (the tubes are kept on ice between each of the three sequences). The cellular lysate then obtained, complemented with water for rinsing the beads (1 mL), is then transferred into a 40 mL glass tube (Corex™) and then the lipids are extracted by using a methanol:chloroform ratio of 2:1 (v/v). Initially, 6 mL of methanol are added and the entire mixture is vortexed for 30 seconds and then incubated for 15 minutes at 65° C. Once the mixture has been cooled to ambient temperature, […] of chloroform is added and then the entire mixture is again vortexed for 30 seconds before allowing the extraction to take place for 16 h. Subsequently, the sample is centrifuged for 12 minutes at 10000 g and then the supernatant is transferred into a new Corex™ tube. After the addition of 2 mL of chloroform and then 4 mL of distilled water, the entire mixture is vortexed for 30 seconds and then centrifuged for 8 minutes at 3000 g. After elimination of the resultant upper phase, the lower organic phase is collected in a hemolysis tube made of glass. Finally, the solvent is evaporated under a nitrogen stream at 80° C. to obtain total cell lipid samples.
The samples of total cell lipids are put back into suspension in 1 mL of dichloromethane in being vortexed for 30 seconds. The entire mixture is deposited on a silica column (BOND ELUT-SI, 100 mg 1 mL) preconditioned with 3 mL of methanol and then 2 mL of dichloromethane successively. The fraction retained by the column is then washed with 2 mL of dichloromethane and then 2 mL of acetone successively. Finally, 2 mL of a mixture of chloroform/methanol/water 50:45:5 (v/v/v) are deposited on the column and the phospholipids thus eluted are collected in a glass hemolysis tube. The solvent is evaporated under nitrogen at 80° C. to obtain the samples of cellular phospholipids.
Once put back into suspension in 100 μL of mixture Mix^− (isopropanol/acetonitrile/water 2:1:1 (v/v/v)+triethylamine 1% (v/v)) or mixture Mix^+ (isopropanol/acetonitrile/water 2:1:1 (v/v/v)+formic acid 1% (v/v)), the samples are analyzed by mass spectrometry (Electro Spray Ionization-Mass Spectrometry (ESI-MS)) in negative or positive mode respectively and the results obtained serve to analyze the fatty acid content of the different species of phospholipids.

[2] = test system: hem1Δ yeasts; assay: Restoration of growth of lipo-intoxicated hem1Δ yeasts (drop test on agar); assay type: cell-based, Saccharomyces cerevisiae; conditions: SFA accumulation conditions; 5 μl drops on agar; after three days
Procedure: FIG. 3B—The hem1Δ yeasts were cultivated in conditions of SFA accumulation as indicated. 5 μl drops of OAG, LPA and oleic acid in the concentrations indicated were then deposited on the surface of the agar medium. The restoration of growth of the hem1Δ yeasts is observed in the formation of colonies after three days.
The strain carrying the hem1Δ strain is cultivated, under aerobic conditions, under stirring and at 28° C., in a YPG^A liquid medium (YPG (yeast extract 1% (m/v), peptone 1% (m/v) and glucose 2% (m/v)) supplemented with δ-aminolevulinic acid (ALA) at 80 μg/mL). Lipotoxicity by saturated fatty acids (SFA) is prompted by depletion of unsaturated fatty acids (UFA)—the synthesis of which is dependent on the presence of haem (prosthetic grouping of the enzyme Ole1p especially)—by transfer into YPG^+ medium (YPG supplemented with ergosterol at 80 μg/mL to compensate for the depletion in sterol obtained under these conditions). The lipotoxicity can be induced in a solid medium YPG^++agar 2% (m/v) in transferring 3500 cells (hem1Δ coming from a pre-culture in YPG^A)/cm^2 or *alternatively in a liquid medium in inoculating 2·10^6 cells/mL of YPG^+. Classically, the effects of lipotoxicity on SFA are analyzed 7 h after the transfer into YPG^+ medium. The capacity of a compound to counter the deleterious effects of lipotoxicity with SFA is for its part evaluated successively with the addition of this compound on (or in) the YPG^+ transfer medium after seeding with cells.
1) Screening of compounds: Following the induction of lipotoxicity with SFA (for hem1Δ cultivated in a solid medium), 5 μL drops of solutions of different compounds at 10 mM in dimethylsulfoxide (DMSO) or in ethanol (EtOH) are deposited on the surface of agar. The capacity of a compound to counter the lipo-induced stoppage of cell growth is estimated by the appearance of a halo of hem1Δ colonies at the position of the deposit of said compound after three days of culture at 28° C. (cf. Deguil et al., 2011).

Row | SMILES | production of di-unsaturated phospholipids (level of PC species 36:2) [1] | restoration of growth of lipo-intoxicated hem1Δ yeasts (formation of colonies) [2] | index of saturation of phospholipids compared with control condition [1]
1 | CCCCCCCC/C=C\CCCCCCCC(=O)OC[C@@H](O)COP(=O)(O)O [LPA, 1-oleoyl-sn-glycerol-3-phosphate] | increase of the level of this species | restore the growth | –
2 | CCCCCCCC/C=C\CCCCCCCC(=O)OC[C@H](CO)OC(C)=O [OAG, 1-oleoyl-2-acetyl-sn-glycerol] | does not restore the production; also recorded: not the case | restore the growth | does not restore an index of saturation comparable to the one observed in the control condition
